Assay results taken from patent US20130225508A1, “PEPTIDE CAPABLE OF BINDING TO IMMUNOGLOBULIN” (priority 2010, published 2013).
No end group written: not given here.

What was measured:
[1] = Evaluation of solubility of peptides in water (PBS or physiological saline); format: physicochemical; details: solvent PBS or physiological saline
Experimental: Water solubility was evaluated for peptides in which various kinds of hydrophilic amino acid were substituted for the 4th and 5th amino acids which were verified in (1) to be allowed to be mutated. The peptides listed in Table 2 were synthesized by GL Biochem (Shanghai). Among the peptides listed in Table 2, peptides SP1 to SP7 are peptides in which various kinds of hydrophilic amino acid were substituted for the 4th and 5th amino acids.
In Table 3, the circle symbol is assigned to a peptide which was dissolved in a solvent (PBS or physiological saline) at a concentration of 10 mg/ml or higher, and the cross symbol is assigned to a peptide which was not dissolved at a concentration of 1 mg/ml. […] In the subsequent experiments, the peptides in which the 4th and 5th amino acids were substituted by hydrophilic amino acids were used.

[2] = tested on: Arthus reaction; assay: Type III allergic (Arthus) reaction-induced rat model, dye leakage; format: in vivo, Slc:Wistar rats; details: 50 mg/kg intraperitoneal; mean±SD
Experimental: Using forty-two 7-week-old male Slc:Wistar rats, examinations were made on test substance VII-2, with each of intraperitoneal administration and intravenous administration into tail vain. Acclimation was carried out by giving normal solid chow CRF-1 for a period of 6 days or longer. On the day prior to administration, the back of each animal was shaved. On the day of administration, a mixed solution of egg-white Ovalbumin (MP Biomedicals) (hereinafter referred to as “OVA”) and Evans blue dye was administered into the tail vein. […] The amount of dye leakage was quantified by measuring absorbance for the Evans blue dye with a spectrophotometer and using a calibration curve. […]
Several cuttings were made in the skin strips that had been punched out with a punch. […] The amount of dye leakage was calculated from a calibration curve of known amounts of the dye.
The mean value (mean)±standard deviation (SD) for each of the groups was calculated with respect to body-weight measurements and amounts of dye leakage. For amounts of dye leakage, the value for each of the animals was determined by subtracting the mean of the values obtained for the two sites of PBS administration from the mean of the values obtained for the two sites of administration of the anti-OVA solution. […]

Compound	solubility [1] [µg/mL]	amount of dye leakage (Evans blue) [2] [μg/animal]
PGLYYF [R1, PGLYYF]	< 1000	–
C[C@]12CCC(=O)C=C1CC[C@@H]1[C@@H]2[C@@H](O)C[C@@]2(C)[C@H]1CC[C@]2(O)C(=O)CO [Hydrocortisone]	–	5.665±0.674
PGLDRF [SP2, PGLDRF]	≥ 10000	–

Further lines, with some results ahead:

solubility [1] [µg/mL]	Compound	amount of dye leakage (Evans blue) [2] [μg/animal]
≥ 10000	PGLEHF [SP6, PGLEHF]	–
≥ 10000	PGLEKF [SP4, PGLEKF]	–
